Columns and labels:
Format in all cases: in vivo, mouse
5×FAD mice = assay: Novel object recognition test in 5×FAD mice; settings: chance level 50%, control 51.33±4.15
Protocol: Given the neuroprotective effect of Plx3397+GENUS treatment, whether this treatment also impacted learning and memory was evaluated. Mice were tested in an open field (OF) and assessed for changes in anxiety and activity levels, followed by a novel object recognition (NOR) test of memory. 10-month-1d 5×FAD mice were treated with Plx3397. Following 20 days administration of Plx3397 chow, untreated- and Plx3397 treated 5×FAD mice (which continued PLX administration) were subjected to 30 days of daily GENUS. Mice were tested in OF and NOR during the last week of these treatments. […] Next, CK-p25 mice were treated for 42 days and assessed behavioral performance.
For OF, mice were introduced into an open field box (dimensions: length=460 mm, width=460 mm and height=400 mm; TSE-Systems) and were tracked using Noldus (Ethovision) for 12 min, with time spent in the center and peripheral area of the arena measured. […] Mouse behavior was monitored for 7 min. Time spent exploring both the familiar and novel objects was recorded using Noldus and computed offline. Percentage of novelty preference index was calculated as follows: time exploring novel object (Nt) divided by total time exploring novel and familiar (Ft) objects and presented in %−{[Nt/Nt+Ft]*100}.

IBA1+ microglia = IBA1+ microglia density, area and volume by immunohistochemistry
Protocol: Experiments were performed to reduce microglia from 10-month-old 5×FAD mice, transgenic mice that overexpress human APP and PSEN1 genes harboring 5 AD-associated mutations, prior to GENUS treatment. […] Following 20 days of administration of Plx3397 chow, untreated- and Plx3397-treated 5×FAD mice (which continued Plx3397 administration) were subjected to 30 days of daily GENUS (FIG. 1A). Following completion of these treatments, microglial density in the visual cortex was compared between 1) untreated (No Stim), 2) Plx3397 treated, 3) GENUS treated and 4) Plx3397+GENUS treated 5×FAD mice (FIG. 1B).
Whether the neuroprotective effect is broader and can be replicated in other mouse models of neurodegeneration was evaluated. The CK-p25 mice, transgenic mice that overexpress CDK5 activator p25 in excitatory neurons, were subjected to these treatments. CK-p25 mice, which was raised in doxycycline containing food, was given either normal rodent chow (containing no doxycycline) or Plx3397 chow, and the mice simultaneously underwent no sensory stimulation or GENUS (FIG. 7A). After 42 days of treatment, neuroprotective factors were evaluated. Plx3397, GENUS and Plx3397+GENUS treatments reduced microglia in the visual cortex in CK-p25 mice (ANOVA F (3,35)=40.93, P<0.0001) (FIGS. 7B-7D), consistent with the results observed in 5×FAD mice and recent findings.
(§1) Microglia: Iba1 immunoreactive cells were considered microglia. Using an LSM 710 or LSM 880 with a 10× (for Iba1+ cell counts) or 40× (for morphological analysis) objective z stacks of the entire slice thickness […] with […] step size were acquired. Imaris was used for 3D rendering of images to quantify the total volume of microglia.
To study how CSF1R-sensitive microglia impact neural activity in the context of AD, an amyloidosis mouse model, the 5×FAD mice—which is a most commonly used mouse model for AD, was subject to a diet containing CSF1R inhibitor Plx3397 for 50 days (FIG. 21A). The CSF1R inhibitor Plx3397 (600 ppm) was employed, which was previously shown to effectively reduce microglia in vivo. Control mice were age-matched 5×FAD litters that received a regular diet. Electrophysiological recordings were performed using linear probes. Post-recording, the recording site in the visual cortex was verified by histology (FIG. 21), and microglia reduction was evaluated by assessing IBA1+ cell numbers.
How does regulating gamma oscillations affect synaptic and neural circuit function in Plx3397 treated 5×FAD mice? Specifically, it was asked what gene expression patterns are after the Plx3397 treatment and how gamma entrainment impacts such a signature. To address these questions, an unbiased RNA sequencing approach was utilized. 5×FAD mice were treated, via oral delivery in mouse chow, with the Plx3397. Following 20 days of administration of Plx3397 chow, untreated- and Plx3397-treated 5×FAD mice (which continued Plx3397 administration) were subjected to 30 days of daily GENUS (FIG. 24A). Following completion of the treatments, microglial density was quantified between 1) untreated (control), 2) Plx3397, 3) GENUS and 4) Plx3397+GENUS treated 5×FAD mice (FIGS. 24A-24D). […] Also observed was a reduction in IBA1 signal in the GENUS group (84.0±6.42 & 9.17±0.85) (FIGS. 24C-24D), which is consistent with previous observation in CK-p25 mice. After the treatments, the visual cortex was dissected, and single nucleus RNA-sequencing was performed.
as §1, with “of microglia. MAC2+ cells were counted manually using Image J.” for “of microglia.”

vGAT = vGAT synaptic puncta immunohistochemistry; settings: 5×FAD mice, visual cortex
Protocol: Loss of synapses and neurons are closely associated with higher neuroinflammatory response and cognitive decline in AD. Therefore, synaptic markers in the visual cortex of Plx3397 and/or GENUS treated mice were evaluated. […] Thus, whether these treatments had any effect on neuronal density by immunohistochemical analysis of neuronal marker NeuN was examined (Synaptic Systems, #266 004) positive cells (FIG. 4A).
vGAT and vGLUT1 puncta: LSM 710, with a 40× objective, was used to acquire the images. The entire […] thickness of the slices was acquired in Z stacks—80 per image (step of 0.5 μm). The spot-count inbuilt function in Imarisx64 9.3 was used to count cells automatically.
vGAT and vGLUT1 puncta: LSM 710, with a 40× objective, was used to acquire the images. The entire […] thickness of the slices was acquired in Z stacks—80 per image (step of 0.5 μm). The spot-count inbuilt function in Imarisx64 9.3 (cohortl) and 9.7 (cohort 2) was used to count cells automatically.

[1] = 5×FAD mice, visual cortex, Plx3397 chow 50 days, GENUS last 30 days

Structure (SMILES): FC(F)(F)c1ccc(CNc2ccc(Cc3c[nH]c4ncc(Cl)cc34)cn2)cn1 [Plx3397, Pexidartinib]
- preference for the novel object in the NOR test (novelty index) (5×FAD mice): 57.55±7.00%
- IBA1+ positive microglia (IBA1+ microglia; 5×FAD mice, CA1 region of the hippocampus): significant reduction
- IBA1+ cells (IBA1+ microglia; 5×FAD mice, hippocampus, chronic Plx3397 vs control): reduced
- IBA1+ positive microglia (IBA1+ microglia; 5×FAD mice, visual cortex, Plx3397 chow 600 ppm 20 days, then 30 days continued with or without daily GENUS, vs untreated): significant reduction
- % area covered by IBA1 (IBA1+ microglia; [1]): 7.27±0.45%
- IBA1+ microglia number (IBA1+ microglia; [1]): 47.18±5.44 % no treatment control
- IBA1+ cells (IBA1+ microglia; 5×FAD mice, visual cortex, Plx3397 diet 600 ppm for 50 days): 12±1.91 cells
- volume of microglia (IBA1+ microglia; CK-p25 mice, visual cortex, 42 days): lower volume
- microglia (IBA1+ microglia; CK-p25 mice, visual cortex, 42 days of treatment): reduced
- IBA1+ microglial cells (IBA1+ microglia; CK-p25 mice, visual cortex, chronic treatment 6 weeks): 44.19±2.86 % no treatment control
- vGAT synaptic puncta (vGAT; IHC): 109.9±2.235 % of no treatment control
- vGAT positive synaptic puncta (vGAT; vs untreated): significant increase

— patent US20230181905A1, “Systems, Devices, and Methods for Enhancing the Neuroprotective Effects of Non-Invasive Gamma Stimulation with Pharmacological Agents” (Massachusetts Institute of Technology, priority 2021, published 2023)
